Test results: US20200246314A1, “DYSLIPIDEMIA THERAPEUTIC AGENT” (KOWA COMPANY, LTD., priority 2014, published 2020)

System: LDL-C in plasma
Experiment: Effect on LDL-C of rat in combination use of compound A and niacin
Assay type: in vivo
Details: male SD rats, oral once per day for one week, blood 4 h after final administration; single agent: compound A 0.1 mg/kg or nicotinic acid 100 mg/kg
Excerpt: Male rats (6-week-old, Jcl:SD, CLEA Japan, Inc.) were used for an experiment. Blood was collected from the jugular vein under satiation. The rats were divided into four groups (N=8) based on TG and TC in plasma and a body weight. For one week from the next day, each of a solvent (0.5% methylcellulose aqueous solution: MC), compound A alone, nicotinic acid alone, and combination of compound A and nicotinic acid was orally administered once per day. Four hours after final administration of the pharmaceutical agent, blood was collected under isoflurane anesthesia, and LDL-C in plasma was measured using high performance liquid chromatography by a method of Usui et al (Usui S et al. Clin Chem., 46, 63-72, 2000). Group 1: Control Group 2: 0.1 mg/kg of compound A […] Group 4: 0.1 mg/kg of compound A and 100 mg/kg of nicotinic acid Results were presented by an average value±standard deviation. Comparison between the control group and each of the pharmaceutical agent administration groups was performed by a multiple comparison test of Dunnett, and a risk rate of less than 5% was determined to have a significant difference.

Structure (SMILES)	effect on LDL-C in plasma
CC[C@@H](Oc1cccc(CN(CCCOc2ccc(OC)cc2)c2nc3ccccc3o2)c1)C(=O)O [Compound A, (R)-2-[3-[[N-(benzoxazol-2-yl)-N-3-(4-methoxyphenoxy)propyl]aminomethyl]phenoxy] butyric acid]	did not exhibit a clear effect on LDL-C
O=C(O)c1cccnc1 [nicotinic acid, pyridine-3-carboxylic acid]	did not exhibit a clear effect on LDL-C
